Source: paper PMC9311615 (Antibiotics, 2022)
Read-outs that look alike come from different tables or passages of the source.

How the values were obtained:
[1] = Daptomycin plasma concentrations, routine TDM, HPLC-UV; conditions: for Daptomycin plasma concentration 1 h, mean ± SD: peak; for Daptomycin plasma concentration 23.5 h, mean ± SD: trough
Protocol: This work was conducted in the framework of DAPTOLIN, an observational retrospective study approved by the Ethics Committee of the Azienda OspedalieroUniversitaria Pisana (AOUP protocol number 55945). […] Patients with incomplete medical records were excluded. […] After the first round, in which 134 patients were included, the dataset was split in 2 subsets through an iterative stratified sampling procedure [21]. The covariates considered for subset balancing were sex, weight, CrCl (calculated through the Cockroft-Gault equation), serum albumin and serum total protein concentration. During the second round, 22 further patients were included, to reach a total of 156 included patients.
Venous blood samples were collected in heparinized tubes and centrifuged immediately after. The extracted plasma was then stored at −20 °C until subsequent analysis.
The quantification technique was based on the novel HPLC-UV method developed and described by Luci and colleagues [22]. Briefly, plasma samples were firstly purified using a 95:5 v/v mixture of acetonitrile and 85% H3PO4, to induce protein precipitation. Samples were then vortexed for 30 s and centrifuged at 7700 rpm for 15 min. […] The mobile phase, composed of a 54:46 v/v mixture of 20 mM KH2PO4 and acetonitrile at pH 3.2, was pumped in the HPLC system at a 1 mL/min flowrate, while the chromatographic column temperature was kept at 35 °C. These conditions allowed the optimal separation of analytes in a 10 min-long chromatographic run.

E. faecium = conditions: Monte-Carlo on Dvorchik's pop-PK model, cited from earlier work
[2] = Population pharmacokinetic model (NONMEM), one-compartment first-order elimination
Protocol: Basic model building was performed using the building subset (n = 94), through PsN-controlled NONMEM iterative runs. One- and two- compartment models with first-order elimination, parametrized in terms of drug Cl and Vd, were evaluated. Residual error was described using additive, proportional or mixed error models. Models were compared based on the following aspects: (1) minimization of the OFV; (2) standard errors and confidence intervals of parameter estimates, calculated for each model through NONMEM correlation matrices and PsN-controlled bootstrap method; (3) goodness-of-fit plots generated with Xpose4 [24]; (4) plausibility of parameter estimates, according to the literature.
The preliminary covariate screening was performed through several Xpose4 functions, which are as follows: (1) graphic analysis of covariate-covariate plots to exclude redundancies, (2) graphic analysis of parameters-covariate plots, (3) generalized additive model (GAM) to search for the covariates that minimized the most of Akaike’s information criterion (AIC) value. Covariate model building was based on the least absolute shrinkage and selection operator method, which is automated within the “lasso” Perl command [17]. Further insights on covariates effect were collected with the same methods, after the second patient enrollment round.
The final model was validated both with internal and external approaches. The former one was performed through the following steps: (1) a visual predictive check (VPC), namely a concentration-time plot, where the mean and 5th and 95th percentile of real data are superimposed to the respective descriptive measures of simulated concentrations; (2) a numeric predictive check, which assesses abnormal trends in the DV/iPRED ratio for different statistical confidence intervals; (3) a bootstrap of the model, which calculates the bias between final parameters estimates and the means estimated through 1500 further runs of the same model, based on a random resampling from the same dataset; (4) calculation of η- and ε-shrinkage, as described in the following equations:(3) ηshrink=1−stdev(ηest)/ω (4) εshrink=1−stdev(IWRES)

[3] = daily dose 6–7 mg/kg, n = 96 patients
[4] = daily dose 8–9 mg/kg, n = 32 patients
[5] = daily dose 10–11 mg/kg, n = 8 patients

SMILES: CCCCCCCCCC(=O)N[C@@H](Cc1c[nH]c2ccccc12)C(=O)N[C@H](CC(N)=O)C(=O)N[C@@H](CC(=O)O)C(=O)N[C@@H]1C(=O)NCC(=O)N[C@@H](CCCN)C(=O)N[C@@H](CC(=O)O)C(=O)N[C@H](C)C(=O)N[C@@H](CC(=O)O)C(=O)NCC(=O)N[C@H](CO)C(=O)N[C@@H]([C@H](C)CC(=O)O)C(=O)N[C@@H](CC(=O)c2ccccc2N)C(=O)O[C@@H]1C [Daptomycin]
- Daptomycin plasma concentration 1 h, mean ± SD ([1]; daily dose 12 mg/kg, n = 4 patients): 80.0 ± 25.7
- Daptomycin plasma concentration 23.5 h, mean ± SD ([1]; daily dose 4–5 mg/kg, n = 15 patients): 11.4 ± 8.7
- Daptomycin plasma concentration 1 h, mean ± SD [1, 3]: 59.3 ± 18.0
- Daptomycin plasma concentration 23.5 h, mean ± SD [1, 3]: 17.8 ± 11.0
- Daptomycin plasma concentration 1 h, mean ± SD [1, 4]: 74.4 ± 51.3
- Daptomycin plasma concentration 23.5 h, mean ± SD [1, 4]: 15.5 ± 10.7
- Daptomycin plasma concentration 1 h, mean ± SD [1, 5]: 69.8 ± 21.7
- Daptomycin plasma concentration 23.5 h, mean ± SD [1, 5]: 25.4 ± 14.1
- CFR against E. faecium reported by Turnidge et al. (E. faecium; 8 mg/kg × MIC 2): 80.4%
- CFR against E. faecium reported by Turnidge et al. (E. faecium; 10 mg/kg × MIC 2): 92.9%
- Cl (θ1), bootstrap mean ([2]; 1500-samples bootstrap): 0.631 L/h
- V (θ2), bootstrap mean ([2]; 1500-samples bootstrap): 10.935 L
- kCrCl (θ5), bootstrap mean ([2]; 1500-samples bootstrap): 0.128
- kSex (θ6), bootstrap mean ([2]; 1500-samples bootstrap): −2.484
- Vd ([2]; human, in vivo): 10.9 L
- clearance ([2]; human, in vivo): 10.6 mL/min
